Earlier results as cited in article PMC4404702 (Molecular imaging and biology : MIB : the official …, 2014).

What was measured:
σ2 = details: read-out: Ki−σ2
σ1 = details: read-out: Ki−σ1

SMILES: O=C(Cc1cccc(Br)c1)NCc1ccc(F)cc1 [YUN-143, N-(4′-fluorobenzyl)-4-(3-bromophenyl)acetamide]
- Ki (σ2): 6.1 ± 1.5 nM
- Ki (σ1): 1.2 ± 0.2 nM
